From patent US20170334899A1, “AMINO-SUBSTITUTED ISOTHIAZOLES” (Bayer Pharma Aktiengesellschaft, priority 2014, published 2017)

Experiments:
Assay type in all cases: cell-based
B16F10 = assay: Proliferation assay (crystal violet), B16F10; conditions: Mus musculus, B16-F10, 96 h; B16F10 cells; 4 days incubation; crystal violet staining; read-out: IC50 inhibition of proliferation, B16F10
How it was run: (§1)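 Absorbance at 595 nm of crystal-violet-stained cells after 4 days' exposure to 0.001–10 μM compound (0.5% DMSO). Values normalized to a day-0 plate (0%) and untreated cells (100%); IC50 by 4-parameter fit.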

HeLa = assay: Proliferation assay (crystal violet), HeLa; conditions: Homo sapiens, HeLa, 96 h, HeLa cells; 4 days incubation; crystal violet staining; read-out: IC50 inhibition of proliferation, HeLa
How it was run: as §1

HeLa-MaTu-ADR = assay: Proliferation assay (crystal violet), HeLa-MaTu-ADR; conditions: 96 h; HeLa-MaTu-ADR cells; 4 days incubation; crystal violet staining; read-out: IC50 inhibition of proliferation, HeLa-MaTu-ADR
How it was run: as §1

NCI-H460 = assay: Proliferation assay (crystal violet), NCI-H460; conditions: Homo sapiens, 96 h; NCI-H460 cells; 4 days incubation; crystal violet staining; read-out: IC50 inhibition of proliferation, NCI-H460
How it was run: as §1

Caco-2 = assay: Proliferation assay (crystal violet), Caco-2; conditions: Homo sapiens, 96 h; Caco-2 cells; 4 days incubation; crystal violet staining; read-out: IC50 inhibition of proliferation, Caco2
How it was run: as §1

DU145 = assay: Proliferation assay (crystal violet), DU145; conditions: Homo sapiens, DU-145, 96 h; DU145 cells; 4 days incubation; crystal violet staining; read-out: IC50 inhibition of proliferation, DU145
How it was run: as §1

Row | SMILES | IC50 (B16F10) [µM] | IC50 (HeLa) [µM] | IC50 (HeLa-MaTu-ADR) [µM] | IC50 (NCI-H460) [µM] | IC50 (Caco-2) [µM] | IC50 (DU145) [µM]
1 | Cc1nsc(Nc2ccc(C#N)cn2)c1C(=O)Nc1ccc(OC2CCN(CC(F)(F)F)CC2)nc1 [Example 30, 5-[(5-Cyanopyridin-2-yl)amino]-3-methyl-N-(6-{[1-(2,2,2-trifluoroethyl)piperidin-4-yl]oxy}pyridin-3-yl)-1,2-thiazole-4-carboxamide] | 0.39 | 0.34 | 0.23 | 0.31 | 0.35 | 0.64
2 | Cc1nsc(Nc2cnc(C(F)(F)F)cn2)c1C(=O)Nc1ccc(F)c(OC[C@@H]2CCCN(CC(F)F)C2)c1 [Example 341, N-(3-{[(3R)-1-(2,2-difluoroethyl)piperidin-3-yl]methoxy}-4-fluorophenyl)-3-methyl-5-{[5-(trifluoromethyl)pyrazin-2-yl]amino}-1,2-thiazole-4-carboxamide] | – | 0.44 | – | – | – | –
3 | Cc1nsc(Nc2cnc(C(F)(F)F)cn2)c1C(=O)Nc1ccc(O[C@H]2CCN(CC(F)F)C2)nc1 [Example 382, N-(6-{[(3S)-1-(2,2-difluoroethyl)pyrrolidin-3-yl]oxy}pyridin-3-yl)-3-methyl-5-{[5-(trifluoromethyl)pyrazin-2-yl]amino}-1,2-thiazole-4-carboxamide] | – | 0.18 | – | – | – | –

More lines, in order of falling IC50 (HeLa), values ahead:

Row | IC50 (B16F10) [µM] | IC50 (HeLa) [µM] | IC50 (HeLa-MaTu-ADR) [µM] | IC50 (NCI-H460) [µM] | IC50 (Caco-2) [µM] | IC50 (DU145) [µM] | SMILES
4 | 0.95 | 1.2 | 0.88 | 0.73 | 1.1 | 3 | Cc1nsc(Nc2cnc3ccccc3n2)c1C(=O)Nc1ccc(OC2CCCN(C(=O)OC(C)(C)C)C2)nc1 (stereo not drawn) [Example 31, tert-Butyl 3-{[5-({[3-methyl-5-(quinoxalin-2-ylamino)-1,2-thiazol-4-yl]carbonyl}-amino)pyridin-2-yl]oxy}piperidine-1-carboxylate]
5 | – | 0.77 | – | – | – | – | Cc1nsc(Nc2cnc(C(F)(F)F)cn2)c1C(=O)Nc1ccc(CCC2CCN(CC(F)F)CC2)nc1 [Example 356, N-(6-{2-[1-(2,2-difluoroethyl)piperidin-4-yl]ethyl}pyridin-3-yl)-3-methyl-5-{[5-(trifluoromethyl)pyrazin-2-yl]amino}-1,2-thiazole-4-carboxamide]
